This is an account of results in article doi:10.1101/2023.10.24.563163v2, “Targeting cancer with small molecule pan-KRAS degraders” (biorxiv, 2024).

Read-outs that look alike come from different tables or passages of the source.

For assay [1], the target named is T1, KRAS (Homo sapiens, UniProt P01116, C118S/G12V).
T1 construct: residues 1-169, C118S background; His6 tag removed, E. coli; biotinylated for SPR
Briefly: biochemical. The conditions noted are these: GDP-bound; read-out: SPR KRAS^G12V GDP KD. Also noted: SPR binary and ternary complex binding affinity and kinetics. The text has this:
(§1) With the objective of identifying molecules that potently degrade multiple KRAS mutants we next sought to employ structure-based design using the solved ternary co-crystal structure of compound 3 to improve ternary complex stability and intracellular VHL engagement. […] Analysis of the VCB:compound 3:KRAS^G12V co-crystal structure (Fig. 1H) highlighted an opportunity to enhance interactions within the ternary complex by improving π-stacking between the exit vector amide of the VHL ligand and Tyr112. We therefore switched the amide for an isoxazole, which has been previously reported to improve VCB affinity in this position in other contexts ([22]), yielding compound 4 (Fig. 2A). A ternary complex co-crystal structure of VCB:compound 4:KRAS^G12V (PDB 8QW7) confirmed a consistent overall binding mode to that observed for compound 3 (RMSD = 0.72 Å), with compound 4 able to engage in π-stacking interaction between the isoxazole and Tyr112 of VCB as designed (Fig. 2B). […] FP, SPR and cellular target engagement studies support a minor improvement in binary VHL engagement for compound 4, with moderate cooperativity retained (fig. S2A-C, table S1). […] We then investigated the impact of these structural changes on degradation kinetics in live HiBiT-tagged GP5d cells (fig. S3A-D). […] Aiming to measure ternary complex stability, we noted that the FP assay reached the limits of quantification due to ternary KD approaching that of the assay probe (fig. S8B).

In assay [2] the target is T2, KRAS^G12D GDP (Homo sapiens, UniProt P01116, C118S/G12D).
T2 construct: residues 1-169, C118S background
T2 sequence (P01116 whole entry G12D/C118S, the tested form may be a part): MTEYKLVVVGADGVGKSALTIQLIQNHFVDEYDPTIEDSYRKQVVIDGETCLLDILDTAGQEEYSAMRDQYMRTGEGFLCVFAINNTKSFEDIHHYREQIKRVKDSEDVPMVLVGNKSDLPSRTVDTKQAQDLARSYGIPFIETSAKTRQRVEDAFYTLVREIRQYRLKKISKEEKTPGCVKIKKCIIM
Briefly: biochemical. Details: SPR binary and ternary complex binding affinity and kinetics. The conditions noted are these: GDP-bound; read-out: SPR KRAS^G12D GDP KD.
From the text: as §1

Assay [3] addresses T3, VHL:EloC:EloB (VCB) complex (Homo sapiens, UniProt P40337).
T3 construct: VHL 54-213 (His6 tag removed by TEV), EloC 17-112, EloB 1-104 co-expressed in E. coli; heterotrimer; with Elongin-C; Elongin-B
Briefly: biochemical. Also noted: SPR binary and ternary complex binding affinity and kinetics. The settings on record: SPR, binary.
From the text: as §1

Assay [4] has as its target KRAS^G12V (Homo sapiens, UniProt P01116, G12V). Also noted: endogenous; KRAS degradation by capillary electrophoresis immunodetection. The conditions noted are these: read-out: DC50 24 h SW620 (converted).
Assay [5] addresses T4, KRAS^WT (Homo sapiens, UniProt P01116).
T4 construct: endogenous wild type
Briefly: cell-based. Also noted: KRAS degradation by capillary electrophoresis immunodetection. The protocol: Protein Detection by Capillary Electrophoresis Cells (50 000) were seeded the day before treatment into 96-well clear-flat bottom plates and incubated overnight (37 °C, humidified tissue culture incubator, 5% CO2). Compounds were added from DMSO stock solution using a digital dispenser and cells are incubated at 37 °C as specified (24 hours for KRAS degradation, 6 hours for determination of pERK levels). At the end of the incubation, medium was removed, cells washed with ice cold PBS, PBS removed and 50 µL lysis buffer (Meso Scale Discovery #R60TX-2) supplemented with 1:100 protease inhibitor solution, 1:100 phosphatase inhibitor I, 1:100 phosphatase inhibitor II (Meso Scale Discovery #R70AA-1), 0.5 µL/mL Benzonase (Novagen #70664-3) and 10 mM dithiothreitol added to each well. Plates with lysis buffer were immediately transferred to -80 °C freezer for at least 2 hours and then thawed on ice. Lysates were transferred to a 96 well V-bottom plate and insoluble debris was pelleted by centrifugation for 20 min. at 4 000 rpm. 40 µL of the supernatant were transferred to a fresh Eppendorf PCR plate. Analysis of protein levels was conducted using the Wes System, ProteinSimple (https://www.bio-techne.com/) as specified by the manufacturer. Briefly, Wes Master Mix (12-230 kDa WES Separation Module, 8 × 25 capillary cartridges, ProteinSimple #SM-W004) and molecular weight markers were prepared as specified in the manufacturer’s recommendations. To detect primary antibodies, anti-rabbit (Protein Simple #DM-001) or anti-mouse (Protein Simple #DM-002) detection modules were used. 7.2 µL lysate + 1.8 µL master mix were combined and heated to 95 °C for 5 min. […] Next, we set out to test the ability of a single pan-KRAS degrading molecule, compound 4, to selectively suppress oncogenic signaling and proliferation in cancer cell lines driven by diverse KRAS mutants. To this end, we first confirmed degradation of KRAS by compound 4 in KRAS-dependent (GP2d, SW620 and NCI-H358 expressing KRAS^G12D, - G12V or -G12C, respectively) as well as in KRAS independent (A-375, HEK293) cell lines (Fig. 3A, fig. S4A). […] Both inhibition and degradation repressed the established markers of MAPK signaling pERK (fig. S4B-D) and DUSP6 (Fig. 3B, fig. S4E) in KRAS dependent cell lines. […] Neither degradation nor inhibition had appreciable antiproliferative effects in the KRAS independent cell lines A-375 and HEK293 (Fig. 3C, fig. S4F).

The mark [6] stands for this setting: A-375, read-out: Dmax 24 h A375 [%].
The mark [7] stands for this setting: HEK293, read-out: Dmax 24 h HEK293 [%].

T1 sequence (P01116 1-169 G12V/C118S): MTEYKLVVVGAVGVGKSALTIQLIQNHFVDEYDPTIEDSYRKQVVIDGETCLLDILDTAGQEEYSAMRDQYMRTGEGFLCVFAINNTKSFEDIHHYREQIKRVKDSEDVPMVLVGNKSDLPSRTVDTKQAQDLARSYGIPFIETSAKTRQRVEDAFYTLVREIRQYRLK
T4 sequence (P01116 whole entry): as the sequence (P01116 whole entry G12D/C118S, the tested form may be a part) above, with D12G, S118C counted along it
T3 sequence (Q15369 17-112): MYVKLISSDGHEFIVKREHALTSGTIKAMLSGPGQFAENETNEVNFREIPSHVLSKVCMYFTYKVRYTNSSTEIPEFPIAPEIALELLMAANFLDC
T3 sequence (Q15370 1-104, further chain): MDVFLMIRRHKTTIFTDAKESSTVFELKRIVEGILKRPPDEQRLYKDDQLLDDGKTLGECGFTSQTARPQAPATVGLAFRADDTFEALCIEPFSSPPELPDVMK
T3 sequence (P40337 54-213): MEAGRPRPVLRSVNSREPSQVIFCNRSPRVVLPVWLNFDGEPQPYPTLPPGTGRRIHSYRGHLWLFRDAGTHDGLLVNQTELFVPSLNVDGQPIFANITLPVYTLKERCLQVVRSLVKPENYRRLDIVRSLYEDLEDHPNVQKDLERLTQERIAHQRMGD
Chain of KRAS^G12V (P01116 whole entry G12V): as the sequence (P01116 whole entry G12D/C118S, the tested form may be a part) above, with D12V, S118C counted along it

As to `Cc1ncsc1-c1ccc(CNC(=O)[C@@H]2C[C@@H](O)CN2C(=O)[C@@H](NC(=O)COCCCN2CCCN(c3nccc(-c4noc([C@@]5(C)CCCc6sc(N)c(C#N)c65)n4)n3)[C@@H](C)C2)C(C)(C)C)cc1` [compound 2], the dissociation constant Kd (as a rule, a measure of binding affinity in units of concentration) in assay [1] stood at 136 ± 1 nM; in assay [2] it was 240 ± 31 nM; in assay [3], 737 ± 388 nM. In addition, in assay [4], the 50% degradation concentration (DC50) (as a rule, the concentration giving 50% degradation) is 1200 nM.

In the case of `Cc1ncsc1-c1ccc(CNC(=O)[C@@H]2C[C@@H](O)CN2C(=O)[C@@H](NC(=O)CCCCCN2CCCN(c3nccc(-c4noc([C@@]5(C)CCCc6sc(N)c(C#N)c65)n4)n3)[C@@H](C)C2)C(C)(C)C)cc1` [compound 3], the dissociation constant Kd came out at 9 ± 1 nM in assay [1] and 13 ± 2 nM in assay [2]. In addition, the kon in assay [3] (read-out: SPR VCB kon [1/(M s)]) is 136000 M⁻¹ s⁻¹. For the same compound, the figures for the maximal degradation (Dmax) in assay [5] (setting [6]) and in assay [5] (setting [7]) were 76% and 48%, respectively. Moreover, in assay [4], the DC50 is 278 nM.

Regarding `Cc1ncsc1-c1ccc(CNC(=O)[C@@H]2C[C@@H](O)CN2C(=O)[C@@H](c2cc(OCCCCN3CCCN(c4nccc(-c5noc([C@@]6(C)CCCc7sc(N)c(C#N)c76)n5)n4)[C@@H](C)C3)no2)C(C)C)cc1` [compound 4], the equilibrium dissociation constant (Kd) in assay [1] was determined as 8 nM; in assay [2], 11 ± 1 nM. Further, the Dmax (commonly the largest share of the target that was removed) in assay [5] (setting [6]) was found to be 100%.

On to `Cc1ncsc1-c1ccc(CNC(=O)C2CC(O)CN2C(=O)C(c2cc(OCCCCN3CCCN(c4nccc(-c5noc(C6(C)CCCc7sc(N)c(C#N)c76)n5)n4)C(C)C3)no2)C(C)C)cc1` (centres unmarked) [compound 5], for which the greatest degradation seen (Dmax) in assay [5] (setting [6]) is less than 15%; in assay [5] (setting [7]), less than 20%.

`Cc1ncsc1-c1ccc([C@H](CO)NC(=O)[C@@H]2C[C@@H](O)CN2C(=O)[C@H](C(C)C)n2cc(OCCCCN3CCCN(c4nccc(-c5noc([C@@]6(C)CCCc7sc(N)c(C#N)c76)n5)n4)[C@@H](C)C3)nn2)cc1` [compound 7, ACBI3] displayed a Kd in assay [3] of 11.1 ± 0.3 nM. Also, the 50% degradation concentration (DC50) in assay [4] was 6.9 nM.
